{"source": "patent US20120252855A1", "about": "“Methods For Treating Degenerative Diseases/Injuries” (priority 2003, published 2012)", "key": {"[1]": {"test_system": "Human marrow progenitor CD34+ cells", "experiment": "CD34+ Progenitor Cell Proliferation Assay Experiment 2", "type": "cell-based", "experimental": "Human marrow progenitor CD34+ cells were washed in SFEM, counted and brought to 2×10^5/mL in 24-well plates and incubated for 7 days in the presence of compound or rhTpo. Dilutions of 3′-{N′-[1-(3,4-Dimethylphenyl)-3-methyl-5-oxo-1,5-dihydropyrazol-4-ylidene]hydrazino}-2′-hydroxybiphenyl-3-carboxylic acid bis-(monoethanolamine) were made in distilled water to equal 0, 0.3, 1 and 3 uM final concentration. Dilutions of 3-{N′-[1-(3,4-dimethylphenyl)-3-methyl-5-oxo-1,5-dihydropyrazol-4-ylidene]hydrazino}-2-hydroxy-3′-tetrazol-5-ylbiphenyl disodium salt were made in DMSO to equal 0, 0.3, 1 and 3 uM final concentration in 0.1% DMSO. Recombinant human TPO at a final concentration of 100 ng/mL was used as a positive control. At day 7, cells were counted and flow cytometry was performed using FITC-CD34."}, "[2]": {"test_system": "early CD34+ progenitor cells from human bone marrow", "experiment": "CD34+ Progenitor Cell Proliferation Assay", "type": "cell-based", "experimental": "Compounds are tested for their ability in stimulating the survival and proliferation of early CD34+ progenitor cells from human bone marrow. In this assay, purified human CD34+ progenitor cells are incubated in liquid culture with test compounds for up to 7 days and the number of cells expressing the early stem cell marker CD34 are then measured by flow cytometry and compared to untreated cells (see Liu et al. Bone Marrow Transplantation. 24:247-52, 1999)."}}}
{"molecule": "CC1=NN(c2ccc(C)c(C)c2)C(=O)C1=NNc1cccc(-c2cccc(C(=O)O)c2)c1O.NCCO.NCCO", "note": "[3′-{N′-[1-(3,4-Dimethylphenyl)-3-methyl-5-oxo-1,5-dihydropyrazol-4-ylidene]hydrazino}-2′-hydroxybiphenyl-3-carboxylic acid bis-(monoethanolamine)]", "values": [{"measurement": "increase in the number of CD34+ cells", "setting": "[1]; compound at 3 uM, dilutions in distilled water, 7 days, FITC-CD34 flow cytometry", "result": 3, "unit": "fold"}]}
{"molecule": "CC1=NN(c2ccc(C)c(C)c2)C(=O)C1=NNc1cccc(-c2cccc(-c3nnn[nH]3)c2)c1O.[Na].[Na]", "note": "[3-{N′-[1-(3,4-dimethylphenyl)-3-methyl-5-oxo-1,5-dihydropyrazol-4-ylidene]hydrazino}-2-hydroxy-3′-tetrazol-5-ylbiphenyl disodium salt]", "values": [{"measurement": "increase in the number of CD34+ cells", "setting": "[1]; compound at 3 uM in 0.1% DMSO, 7 days, FITC-CD34 flow cytometry", "result": 3.6, "unit": "fold"}]}
{"molecule": "CC1=NN(c2ccc(C(F)(F)F)cc2)C(=O)C1=NNc1cccc(-c2cccc(C(=O)O)c2)c1O", "note": "[3′-{N′-[3-methyl-5-oxo-1-(4-trifluoromethylphenyl)-1,5-dihydropyrazol-4-ylidene]hydrazino}-2′-hydroxybiphenyl-3-carboxylic acid]", "values": [{"measurement": "increase in the number of CD34+ cells in liquid culture over vehicle controls", "setting": "[2]; compound at 3 uM, days 2, 5 and 7, flow cytometry", "result": "up to 2 fold"}]}
{"molecule": "rhTpo: Recombinant human TPO, used as a positive control at 100 ng/mL", "values": [{"measurement": "increase in the number of CD34+ cells", "setting": "[2]; rhTpo 100 ng/ml, same experiment as E1", "result": 2, "unit": "fold"}, {"measurement": "increase in the number of CD34+ cells", "setting": "[1]; rhTpo 100 ng/ml positive control, experiment with the bis-(monoethanolamine) salt, day 7", "result": 15, "unit": "fold"}, {"measurement": "increase in the number of CD34+ cells", "setting": "[1]; rhTpo 100 ng/ml positive control, experiment with the tetrazole disodium salt, day 7", "result": 3.4, "unit": "fold"}]}
